In patent publication US11986482B2, “Method of promoting antitumor or anti-cancer immunity” (City University of Hong Kong, priority 2021, dated 2024):

How the values were obtained:
[1] = biological target: T1, Rab27a (Homo sapiens, UniProt P51159); test: GST-SHD pulldown assay of Rab27a activity; type: cell-based; settings: HeLa cells, 1 μM
T1 construct: western blot analysis of Rab27a in HeLa cells treated with or without 6J1 (1 μM) through a GST-SHD pulldown assay; endogenous in cells; host or cells: HeLa cells
T1 sequence (P51159 1-221): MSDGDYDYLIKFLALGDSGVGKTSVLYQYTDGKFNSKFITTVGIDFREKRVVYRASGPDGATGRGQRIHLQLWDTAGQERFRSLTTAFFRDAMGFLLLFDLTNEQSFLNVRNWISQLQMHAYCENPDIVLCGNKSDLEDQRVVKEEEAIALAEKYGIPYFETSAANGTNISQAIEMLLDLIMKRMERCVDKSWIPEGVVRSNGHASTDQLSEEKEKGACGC
Protocol: (§1) It has previously been shown that interfering with endosomal trafficking promotes exosome secretion. Moreover, PD-L1 has been reported to be enriched in exosomes and secreted outside the cell. Thus, inventors speculate that 6J1 may induce the secretion of the PD-L1 trapped in the endosomal compartments via exosomes. To determine whether 6J1 may induce the secretion of PD-L1 via exosomes, HeLa cells are treated with or without 6J1 (1 μM) for 24 h. The supernatant is collected. Inventors purify the exosomes from the supernatant of HeLa cells by sequential centrifugation. The concentration of extracellular vesicle is determined using a Nanosight nanoparticle analyzer. And HeLa cells are treated with or without 6J1 (1 μM) for 48 h. The cell and supernatant are collected for Western Blot analysis. […] Moreover, the activity of Rab27a in HeLa cells treated with or without 6J1 (1 μM) is examined with a GST-SHD pulldown assay.

[2] = test system: PD-L1; test: Western blot of PD-L1 in exosomes of 4T1 cells; type: cell-based, mouse; settings: 1 μM
Protocol: The current PD-L1 and PD1 therapies apply PD-L1 or PD1 monoclonal antibodies to block the PD-L1/PD1 signaling, which results in cytotoxic T cells recognizing and killing the tumor cells. […] First, flow cytometry-based quantification of plasma membrane levels of PD-L1 in 4T1 cells treated with or without 6J1 (1 μM) for 24 h. 4T1 cells are treated with or without 6J1 (1 μM) for 24 h. The supernatant is collected, and the concentration of extracellular vesicle is determined using a Nanosight nanoparticle analyzer in FIG. 8b. The exosomes are also collected and subjected to western blot analysis of the EVs marker and PD-L1 in FIG. 8c.
Therefore, it is possible that the increased exosomal PD-L1 secretion induced by 6J1 may still suppress the tumor-infiltrating T cell cytotoxicity in vivo, even though 6J1 reduces the cell surface expression level of PD-L1 on the tumor cells. To evaluate the role of exosomal PD-L1 in the tumor microenvironment and tumor progression in mice, inventors knock out Rab27a in 4T1 cells to inhibit the secretion of exosomes. 4T1-shNC or 4T1-shRab27A cells are treated with or without 6J1 (1 μM). The supernatant is collected, and the concentration of extracellular vesicle is determined using a Nanosight nanoparticle analyzer. […] Inventors analyze the plasma membrane levels of PD-L1 in 4T1-shNC or 4T1-shRab27A cells treated with or without 6J1 (1 μM). […]

[3] = test system: HeLa, A549 and MDA-MB-231 cell lines; test: Cytotoxicity, Hochest 33342 cell number; type: cell-based; settings: 24 h or 48 h
Protocol: (§2) The inventors also test the cytotoxicity of 6J1 in several cancer cell lines, HeLa, A549 and MDA-MB-231 cell lines. Cells are grown in 96-well plates in triplicate and treated with or without 6J1 at the concentrations of 0, 0.01, 0.1, 1, 10 and 100 μM indicated for 24 h or 48 h. They are then stained with propidium iodide (PI) or Hochest 33342 to measure the cell death ratio and cell number, respectively. […] Inventors also test the cytotoxicity of 6J1 in 4T1 cells. 4T1 cells are plated in 96-well plates in triplicate and treated with or without 6J1 at the concentrations of 0, 0.01, 0.1, 1, 5, 10, 20, 40, 80 and 100 μM indicated for 24 h or 48 h. The cell viability was then quantified via the MTT assay.

[4] = test system: HeLa, A549 and MDA-MB-231 cell lines; test: Cytotoxicity, propidium iodide cell death ratio; type: cell-based; settings: 24 h or 48 h
Protocol: as §2

[5] = test system: HeLa cells; test: Extracellular vesicle concentration, Nanosight nanoparticle analyzer, HeLa cells; type: cell-based; settings: 1 μM, 24 h
Protocol: as §1
Moreover, ATG5- or LC3-knockout HeLa cells are treated with or without 6J1 (1 μM) for 24 h. The supernatant is collected, and the concentration of the extracellular vesicle is determined using a Nanosight nanoparticle analyzer. The exosomes are also collected and subjected to western blot analysis of the EVs marker and PD-L1 in FIG. 7a. The live cells are also labeled with an anti-PD-L1 antibody in FIG. 7b and subjected to flow cytometry analysis in FIG. 7c. […] In addition, inventors assess whether other autophagy-related genes, e.g., ATG4B, ATG7, Beclin1, and Vps34 are involved in 6J1-mediated exosomal PD-L1 secretion. ATG4B-, ATG7-, Beclin1-, or VPS34-knockout HeLa cells are treated with or without 6J1 (1 μM) for 24 h. The supernatant is collected, and the concentration of extracellular vesicle is determined using a Nanosight nanoparticle analyzer. The exosomes are also collected and subjected to western blot analysis of the EVs marker and PD-L1 in FIG. 7d. The live cells are also labeled with an anti-PD-L1 antibody and subjected to flow cytometry analysis in FIG. 7e.

## OCCOCCN(c1ccccc1)c1nc(N/N=C/c2cccc(I)c2)nc(N2CCOCC2)n1 [Compound 6J1]
[1]
  activity of Rab27a-GTPase: significantly increases the activity of Rab27a-GTPase
[2]; 4T1-shRab27A cells
  6J1-induced exosomal PD-L1 levels: significantly inhibits
[2]; 4T1 cells, 24 h
  secretion of PD-L1 in exosomes: induces the secretion of PD-L1 in exosomes
[3]; 0.01-100 μM
  cell proliferation (cell number): inhibits cell proliferation in a concentration-dependent manner
[3]; ≤1 μM, several cell types
  cell proliferation at effective concentrations: only subtly inhibits cell proliferation
[4]; 0.01-100 μM
  cell death: induces cell death in a concentration-dependent manner
[4]; ≤1 μM
  cell death at effective concentrations: hardly induces any cell death
[5]; ATG4B-, ATG7-, Beclin1- or VPS34-knockout HeLa cells
  6J1-induced EVs secretion: fails to abolish
[5]; ATG5- or LC3B-knockout HeLa cells
  6J1-induced EVs secretion: Neither ATG5 nor LC3B knockout impairs
[5]; HeLa cells
  exosome secretion (extracellular vesicle concentration): dramatically induces exosome secretion
